{"source": "ChEMBL document CHEMBL1145893", "about": "“Three-dimensional quantitative structure-activity relationship analysis of propafenone-type multidrug resistance modulators: influence of variable selection on test set predictivity” (J Med Chem, 2003)", "note": "pIC50: −log10 of the molar value.", "data": [{"test_system": "CCRF-CEM/VCR-1000", "test": "In vitro multi drug resistance (MDR) reversal inhibitory activity against CCRF-CEM/VCR-1000 cell line", "type": "functional, cell-based", "settings": "Homo sapiens", "values": [{"smiles": "CCCNCC(O)c1oc2ccccc2c1CC", "note": "(stereo not given)", "pIC50": 3.36}, {"smiles": "CCCNCCc1oc2ccccc2c1CCc1ccccc1", "pIC50": 5.07}, {"smiles": "CN(C)CC(O)COc1ccccc1C(=O)CCc1ccccc1", "note": "(stereo not given)", "pIC50": 5.58}, {"smiles": "CC(=O)c1ccccc1OCC(O)CN1CCN(c2ccc(F)cc2)CC1", "note": "(stereo not given)", "pIC50": 5.42}, {"smiles": "CCC(=O)c1ccccc1OCC(O)CN1CCOCC1", "note": "(stereo not given)", "pIC50": 3.68}, {"smiles": "COc1ccccc1N1CCN(CC(=O)c2oc3ccccc3c2CCc2ccccc2)CC1", "pIC50": 4.78}, {"smiles": "O=C(CCc1ccccc1)c1cc(OCc2ccccc2)ccc1OCC(O)CN1CCN(Cc2ccccc2)CC1", "note": "(stereo not given)", "pIC50": 6.92}, {"smiles": "CC(C)NCCc1oc2ccccc2c1CCc1ccccc1", "pIC50": 4.69}, {"smiles": "O=C(CCc1ccccc1)c1ccccc1OCC(O)CNCc1ccccc1", "note": "(stereo not given)", "pIC50": 6.12}, {"smiles": "O=C(CCc1ccccc1)c1ccccc1OCC(O)CNCC(c1ccccc1)c1ccccc1", "note": "(stereo not given)", "pIC50": 7.05}, {"smiles": "O=C(CCc1ccccc1)c1ccc(OCC(O)CN2CCOCC2)cc1", "note": "(stereo not given)", "pIC50": 5.16}, {"smiles": "O=C(CCc1ccccc1)c1ccccc1OCC(O)CNC1CCCCC1", "note": "(stereo not given)", "pIC50": 6.47}, {"smiles": "O=C(CCc1ccccc1)c1cccc(OCC(O)CN2CCN(c3ccc(F)cc3)CC2)c1", "note": "(stereo not given)", "pIC50": 5.95}, {"smiles": "O=C(CCc1ccccc1)c1cccc(OCC(O)CN2CCCCC2)c1", "note": "(stereo not given)", "pIC50": 6.41}, {"smiles": "COC(CCc1ccccc1)c1ccccc1OCC(O)CN(C(C)C)C(C)C", "note": "(stereo not given)", "pIC50": 6.18}, {"smiles": "COC(CCc1ccccc1)c1ccccc1OCC(O)CN1CCN(c2ccc(F)cc2)CC1", "note": "(stereo not given)", "pIC50": 6.64}, {"smiles": "COC(CCc1ccccc1)c1ccccc1OCC(O)CN1CCCCC1", "note": "(stereo not given)", "pIC50": 6.11}, {"smiles": "CC(=O)c1ccc(OCC(O)CN2CCN(c3ccc(F)cc3)CC2)cc1", "note": "(stereo not given)", "pIC50": 4.92}, {"smiles": "COc1cccc(N2CCN(CC(O)COc3ccccc3C(=O)CCc3ccccc3)CC2)c1", "note": "(stereo not given)", "pIC50": 6.92}, {"smiles": "CC(=O)c1ccc(OCC(O)CN2CCOCC2)cc1", "note": "(stereo not given)", "pIC50": 3.52}, {"smiles": "OC(COc1ccccc1C(O)CCc1ccccc1)CN1CCN(c2ccc(F)cc2)CC1", "note": "(stereo not given)", "pIC50": 6.17}, {"smiles": "O=C(CCc1cccc2ccccc12)c1ccccc1OCC(O)CN1CCC(O)(c2ccccc2)CC1", "note": "(stereo not given)", "pIC50": 7.15}, {"smiles": "O=C(CCc1ccccc1)c1ccc(OCC(O)CN2CCCCC2)cc1", "note": "(stereo not given)", "pIC50": 5.87}, {"smiles": "COC(CCc1ccccc1)c1ccccc1OCC(O)CNCCC(c1ccccc1)c1ccccc1", "note": "(stereo not given)", "pIC50": 6.12}, {"smiles": "CC(C)N(CC(O)COc1ccc(C(=O)CCc2ccccc2)cc1)C(C)C", "note": "(stereo not given)", "pIC50": 6.04}, {"smiles": "CCC(=O)c1ccccc1OCC(O)CN1CCCCC1", "note": "(stereo not given)", "pIC50": 5.16}, {"smiles": "O=C(CCc1ccccc1)c1ccccc1OCC(O)CN1CCN(c2ccccc2)CC1", "note": "(stereo not given)", "pIC50": 6.68}, {"smiles": "O=C(CCc1ccccc1)c1cc(O)ccc1OCC(O)CN1CCN(Cc2ccccc2)CC1", "note": "(stereo not given)", "pIC50": 6.28}, {"smiles": "COC(=O)c1ccc(NCC(O)COc2ccccc2C(=O)CCc2ccccc2)cc1", "note": "(stereo not given)", "pIC50": 5.60}, {"smiles": "COC(CCc1ccccc1)c1ccccc1OCC(O)CN1CCOCC1", "note": "(stereo not given)", "pIC50": 5.74}, {"smiles": "CC(=O)c1ccc(OCC(O)CN2CCCCC2)cc1", "note": "(stereo not given)", "pIC50": 4.12}, {"smiles": "CCCNCC(O)COc1ccc(OCc2ccccc2)cc1C(=O)CCc1ccccc1", "note": "(stereo not given)", "pIC50": 6.96}, {"smiles": "CC(=O)c1ccccc1OCC(O)CN1CCC(O)(c2ccccc2)CC1", "note": "(stereo not given)", "pIC50": 5.55}, {"smiles": "O=C(CCc1ccccc1)c1cc(O)ccc1OCC(O)CN1CCCCC1", "note": "(stereo not given)", "pIC50": 5.64}, {"smiles": "O=C(CCc1cccc2ccccc12)c1ccccc1OCC(O)CNCCC(c1ccccc1)c1ccccc1", "note": "(stereo not given)", "pIC50": 6.14}, {"smiles": "O=C(CCc1ccccc1)c1ccc(OCC(O)CN2CCN(c3ccc(F)cc3)CC2)cc1", "note": "(stereo not given)", "pIC50": 5.60}, {"smiles": "O=C(c1ccccc1)c1ccccc1OCC(O)CN1CCC(O)(c2ccccc2)CC1", "note": "(stereo not given)", "pIC50": 6.72}, {"smiles": "O=C(c1ccccc1)c1ccccc1OCC(O)CN1CCN(c2ccc(F)cc2)CC1", "note": "(stereo not given)", "pIC50": 6.38}, {"smiles": "CC(=O)c1cccc(OCC(O)CN2CCN(c3ccc(F)cc3)CC2)c1", "note": "(stereo not given)", "pIC50": 4.94}, {"smiles": "O=C(CCc1ccccc1)c1ccccc1OCC(O)CNc1ccccc1", "note": "(stereo not given)", "pIC50": 5.19}, {"smiles": "CC(C)N(CC(O)COc1ccc(O)cc1C(=O)CCc1ccccc1)C(C)C", "note": "(stereo not given)", "pIC50": 5.98}, {"smiles": "CC(=O)c1cccc(OCC(O)CN2CCOCC2)c1", "note": "(stereo not given)", "pIC50": 3.93}, {"smiles": "O=C(CCc1ccccc1)c1ccccc1OCC(O)CN1CCN(c2ccc(F)cc2)CC1", "note": "(stereo not given)", "pIC50": 6.85}, {"smiles": "O=C(CCc1ccccc1)c1ccccc1OCC(O)CN1CCCCC1", "note": "(stereo not given)", "pIC50": 6.17}, {"smiles": "O=C(CCc1cccc2ccccc12)c1ccccc1OCC(O)CN1CCCCC1", "note": "(stereo not given)", "pIC50": 6.77}, {"smiles": "O=C(CCc1ccccc1)c1ccccc1OCC(O)CNCCC(c1ccccc1)c1ccccc1", "note": "(stereo not given)", "pIC50": 6.14}, {"smiles": "O=C(CCc1ccccc1)c1cc(OCc2ccccc2)ccc1OCC(O)CN1CCCCC1", "note": "(stereo not given)", "pIC50": 6.77}, {"smiles": "O=C(CCc1ccccc1)c1ccccc1OCC(O)CN1CCC(O)(c2ccccc2)CC1", "note": "(stereo not given)", "pIC50": 7.15}, {"smiles": "CC(C)N(CC(O)COc1ccc(OCc2ccccc2)cc1C(=O)CCc1ccccc1)C(C)C", "note": "(stereo not given)", "pIC50": 7.10}, {"smiles": "O=C(CCc1ccccc1)c1ccccc1OCC(O)CN1CCN(Cc2ccccc2)CC1", "note": "(stereo not given)", "pIC50": 6.42}, {"smiles": "CC(C)N(CC(O)COc1ccccc1C(O)CCc1ccccc1)C(C)C", "note": "(stereo not given)", "pIC50": 5.76}, {"smiles": "CC(=O)c1cccc(OCC(O)CN2CCCCC2)c1", "note": "(stereo not given)", "pIC50": 5.04}, {"smiles": "CC(C)N(CC(O)COc1ccccc1C(=O)CCc1cccc2ccccc12)C(C)C", "note": "(stereo not given)", "pIC50": 6.27}, {"smiles": "COc1ccccc1N1CCN(CC(O)c2oc3ccccc3c2CCc2ccccc2)CC1", "note": "(stereo not given)", "pIC50": 6.06}, {"smiles": "COc1ccccc1N1CCN(CC(O)COc2ccccc2C(=O)CCc2ccccc2)CC1", "note": "(stereo not given)", "pIC50": 6.96}, {"smiles": "OC(COc1ccccc1C(O)CCc1ccccc1)CN1CCCCC1", "note": "(stereo not given)", "pIC50": 5.87}, {"smiles": "OC(COc1ccccc1C(O)CCc1ccccc1)CN1CCOCC1", "note": "(stereo not given)", "pIC50": 5.02}, {"smiles": "O=C(CCc1ccccc1)c1ccccc1OCC(O)CNC(c1ccccc1)c1ccccc1", "note": "(stereo not given)", "pIC50": 5.99}, {"smiles": "CCCN(C)CC(O)COc1ccccc1C(=O)CCc1ccccc1", "note": "(stereo not given)", "pIC50": 6.31}, {"smiles": "O=C(CCc1cccc2ccccc12)c1ccccc1OCC(O)CN1CCOCC1", "note": "(stereo not given)", "pIC50": 6.17}, {"smiles": "CCC(=O)c1ccccc1OCC(O)CN1CCC(O)(c2ccccc2)CC1", "note": "(stereo not given)", "pIC50": 6.52}, {"smiles": "CCN(CC)CC(O)COc1ccccc1C(=O)CCc1ccccc1", "note": "(stereo not given)", "pIC50": 6.04}, {"smiles": "CCCNCC(O)c1oc2ccccc2c1CCc1ccccc1", "note": "(stereo not given)", "pIC50": 4.24}, {"smiles": "COc1ccc(N2CCN(CC(O)COc3ccccc3C(=O)CCc3ccccc3)CC2)cc1", "note": "(stereo not given)", "pIC50": 6.74}, {"smiles": "O=C(CCc1ccccc1)c1ccccc1OCC(O)CN1CCOCC1", "note": "(stereo not given)", "pIC50": 5.43}, {"smiles": "O=C(CCc1ccccc1)c1ccccc1OCC(O)CN1CCCC1", "note": "(stereo not given)", "pIC50": 5.74}, {"smiles": "Cc1ccccc1N1CCN(CC(O)COc2ccccc2C(=O)CCc2ccccc2)CC1", "note": "(stereo not given)", "pIC50": 7.30}, {"smiles": "CC(C)N(CC(O)COc1ccccc1C(=O)CCc1ccccc1)C(C)C", "note": "(stereo not given)", "pIC50": 6.51}, {"smiles": "CCCNCC(O)COc1ccc(O)cc1C(=O)CCc1ccccc1", "note": "(stereo not given) [5-HYDROXY PROPAFENONE]", "pIC50": 5.52}, {"smiles": "CCCNCC(O)COc1ccccc1C(=O)CCc1ccccc1", "note": "(stereo not given) [PROPAFENONE]", "pIC50": 5.97}]}]}
